Experimental findings from ChEMBL document CHEMBL1201862, “PubChem BioAssay data set” (2004) are described below.

As a reminder, the AC50 is the midpoint of the concentration-response curve, whichever way the signal moves. Broadly, the IC50 is the midpoint of a concentration-inhibition curve.

Each structure is given as a SMILES string. The source made the active and inactive calls. Bounds are passed on as bounds.

Assay [1] in a line: PAX2 cell-based inhibition, dose response, selectivity assay for PAX8 inhibitor project, plate reader, dry powder samples (AID 743048).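 Note: HEK293 cells carrying a WT1 promoter luciferase reporter driven by expressed Pax2; potency is for inhibition of Pax2 driven reporter signal.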 Type of assay: functional.
Assay [2] in a line: cytotoxicity in COV362 ovarian cancer cells, dose response, cytotoxicity control for PAX8 inhibitor project, cell-based, plate reader, dry powder, SA12 (AID 743144). Type of assay: functional.
Assay [3] is described as follows: NIH:OVCAR-3 ovarian cancer cell cytotoxicity, dose response, PAX8 inhibitor project, plate reader, dry powder samples (AID 743044). Format: functional, cell-based.
The nature of assay [4]: PAX5 activity inhibitors, dose response, selectivity assay for PAX8 inhibitor project, cell-based, plate reader, dry powder samples (AID 743047).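 Note: HEK293 cells carrying a Pax5 driven CD19 promoter luciferase reporter; potency of inhibitors that lower reporter luminescence.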 Format: functional.
A short description of assay [5]: IGROV1 ovarian cancer cell cytotoxicity, dose response, PAX8 inhibitor project, plate reader, dry powder samples (AID 743043). Type of assay: functional, cell-based. As to conditions: IGROV-1.
Assay [6] can be described thus: cytotoxicity in OVCAR4 cells, dose response, cytotoxicity control for PAX8 inhibitor project, cell-based, plate reader, dry powder, SA11 (AID 743150). Format: functional. As to conditions: OVCAR-4.
Assay [7] can be described thus: cytotoxicity in COV434 cells, dose response, cytotoxicity control for PAX8 inhibitor project, cell-based, plate reader, dry powder, SA7 (AID 743145). Format: functional.
Assay [8] can be described thus: cytotoxicity in OV-90 ovarian cancer cells, dose response, PAX8 inhibitor project, cell-based, plate reader, dry powder, SA8 (AID 743149). Type of assay: functional.
A short description of assay [9]: non-specific cell cytotoxicity, dose response, cytotoxicity control for PAX8 inhibitor project, plate reader, dry powder samples (AID 743021). Type of assay: functional, cell-based.
Assay [10] in a line: cytotoxicity dependent on PAX8, dose response, cell-based, plate reader, dry powder (AID 743049). Type of assay: functional.
Assay [11] can be described thus: HepG2 cell cytotoxicity, dose response, cytotoxicity control, cherry-picks, set 5 (AID 1053118). Format: functional, cell-based.
A short description of assay [12]: fibronectin fibrillogenesis inhibitors in fibroblasts, dose response, AH1F cells, Alexa488-fibronectin fluorescence, cherry-pick, set 2 (AID 1117283). Format: functional, cell-based.
A short description of assay [13]: CTGF mRNA reduction under YAP1 overexpression, dose response, mechanism study for YAP1 pathway inhibitor project, DLD1 cells, RT-qPCR, cherry-pick (AID 1053127). Format: functional, cell-based. The settings on record: DLD-1. For orientation: In qPCR the cycle at which signal appears reflects the starting amount.
Assay [14] can be described thus: YAP1 pathway inhibition via CTGF transcript levels, dose response, cell-based, DLD1 colon cancer, RT-qPCR, cherry-pick (AID 1053122). Type of assay: functional. As to conditions: Cancer cell lines.
Assay [15] can be described thus: P. falciparum Dd2 growth inhibitors, dose response, SYBR Green, cherry-picked samples (AID 1159567). Format: functional, cell-based.
Assay [16] can be described thus: HepG2 cell cytotoxicity, dose response, cytotoxicity control, cherry-picked samples (AID 1159577). Type of assay: functional, cell-based.
For assay [17], the target named is NAD-dependent protein deacylase sirtuin-5, mitochondrial (Homo sapiens, UniProt Q9NXA8). In words: SIRT5 deacylase inhibitors, dose response, biochemical, fluorescence imaging, cherry-pick, set 6 (AID 720597).
Sequence of NAD-dependent protein deacylase sirtuin-5, mitochondrial (Q9NXA8 whole entry): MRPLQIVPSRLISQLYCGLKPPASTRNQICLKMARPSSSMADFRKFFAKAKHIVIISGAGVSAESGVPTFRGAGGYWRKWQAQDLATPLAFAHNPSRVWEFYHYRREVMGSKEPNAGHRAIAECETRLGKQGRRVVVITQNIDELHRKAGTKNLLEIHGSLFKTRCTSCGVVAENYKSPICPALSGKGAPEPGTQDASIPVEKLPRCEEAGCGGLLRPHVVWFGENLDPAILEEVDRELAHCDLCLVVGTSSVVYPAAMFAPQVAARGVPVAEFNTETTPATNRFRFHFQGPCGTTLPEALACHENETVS
Assay [18] can be described thus: A375 melanoma cell viability loss, dose response, counter-screen for MITF inhibitor project, CellTiter-Glo luminescence, dry powder, set 4 (AID 624364).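 Note: A375 melanoma cells are MITF independent so this is a counter screen.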 The settings on record: A-375. Type of assay: functional, cell-based.
Assay [19] is described as follows: A375 melanoma cell cytotoxicity, dose response, counter-screen for MITF inhibitor project, CellTiter-Glo luminescence, dry powder, set 2 (AID 624489).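 Note: actives are compounds lowering A375 viability meaning general cytotoxicity.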 Format: functional, cell-based. The settings on record: A-375. Background: The purpose of a counterscreen is to sort out artefacts and off-target activity.
Assay [20] in a line: cells. As to conditions: HEK293.
For assay [21], the target named is T1, Low molecular weight phosphotyrosine protein phosphatase (Homo sapiens, UniProt P24666).
T1 sequence (P24666 whole entry): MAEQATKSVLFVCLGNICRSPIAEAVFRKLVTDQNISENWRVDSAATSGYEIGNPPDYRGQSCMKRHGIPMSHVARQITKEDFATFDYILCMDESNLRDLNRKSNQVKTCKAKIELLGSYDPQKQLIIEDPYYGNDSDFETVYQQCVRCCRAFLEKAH
In words: LMPTP phosphatase inhibitors, dose response, biochemical, OMFP substrate, fluorescence intensity, set 2 (AID 743307). Format: functional.

Assay [22] has as its target T1, Low molecular weight phosphotyrosine protein phosphatase. Nature of the assay: LMPTP phosphatase inhibitors, colorimetric pNPP readout, dose response, orthogonal assay, biochemical, absorbance, pNPP substrate, LMPTP-A isoform, set 2 (AID 743308). Format: functional.
In assay [23] the target is G-protein coupled receptor 183 (Homo sapiens, UniProt P32249). In words: SAR confirmation of small molecule antagonists of the EBI2 receptor via a luminescent beta-arrestin assa. Format: functional.
Sequence of G-protein coupled receptor 183 (P32249 whole entry): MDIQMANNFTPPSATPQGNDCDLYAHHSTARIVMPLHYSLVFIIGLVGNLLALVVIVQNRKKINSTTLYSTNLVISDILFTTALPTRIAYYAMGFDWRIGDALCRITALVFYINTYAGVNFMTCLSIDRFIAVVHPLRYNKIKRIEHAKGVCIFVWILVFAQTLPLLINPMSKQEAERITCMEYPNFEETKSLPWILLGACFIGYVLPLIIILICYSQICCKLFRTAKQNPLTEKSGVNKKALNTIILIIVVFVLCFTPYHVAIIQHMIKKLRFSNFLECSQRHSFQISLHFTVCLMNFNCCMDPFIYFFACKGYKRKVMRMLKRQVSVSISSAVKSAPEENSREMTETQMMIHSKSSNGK
Assay [24] can be described thus: HeLa 2N DNA content increase, dose response, cell-based, IC50 (AID 1117349). Format: functional.
Assay [25] is described as follows: Concentration-dependent survival of SW480 colon cancer line, luminescence detection with CellTiter-Glo, half-maximal inhibitory concentration (AID 1117338). Format: functional.
Assay [26] can be described thus: RKO cell viability reduction, dose response, CellTiter-Glo luminescence (AID 1117322). Format: functional.
Assay [27] is described as follows: cytotoxicity toward HCT116 cells – cell-based, CellTiter-Glo luminescence, IC50, dose response (AID 1117332). Format: functional. As to conditions: HCT-116. A general note: ATP-based viability assays read luminescence as a measure of living cells.
Assay [28] is described as follows: SNU-C1 cell viability reduction, dose response, CellTiter-Glo luminescence (AID 1117323). Format: functional, cell-based.
A short description of assay [29]: cytotoxicity toward Colo320 cells – cell-based, CellTiter-Glo luminescence, IC50, dose response (AID 1117334). The settings on record: COLO 320. Format: functional.
Assay [30] is described as follows: HeLa 4N DNA content increase, dose response, cell-based, IC50 (AID 1117351). Type of assay: functional.
Assay [31] in a line: cytotoxicity toward HT-29 cells – cell-based, CellTiter-Glo luminescence, IC50, dose response (AID 1117330). Format: functional.
The nature of assay [32]: CellTiter-Glo luminescent dose response of DLD-1 viability loss (AID 1117352). Type of assay: functional.
Assay [33] can be described thus: HCT116 cell viability decrease, GSK3B pretreatment – CellTiter-Glo, IC50, dose response (AID 1117339). Type of assay: functional. The settings on record: HCT-116.

As to `CN(C)CCN(C(=O)/C=C/c1cccs1)c1nc2c(F)cc(F)cc2s1`, the AC50 in [1] is > 100 µM (inactive); in [2] it was 21.2 µM (active); in [3], 29.1 µM (active); in assay [4], > 100 µM (inactive); in assay [5] it was 34.3 µM (active); in assay [6], 31.2 µM (active). Also, the AC50 in [7] was 44.9 µM (active); in assay [8], 32.8 µM (active); in assay [9] it was 11.6 µM (active); in assay [10], 19.4 µM (active).
Regarding `COc1ccc([N+](=O)[O-])cc1NS(=O)(=O)c1ccc(C(=O)N2CCCC2)cc1`, the AC50 in assay [11] is > 52 µM (inactive); in [12], 51 µM (active).
For `C[C@@H]1CN([C@H](C)CO)C(=O)c2ccccc2-c2ccccc2CO[C@@H]1CN(C)Cc1ccc(Oc2ccccc2)cc1`, the concentration at half-maximal activity (AC50) in [13] is 7.84 µM (active); in [14], 6.79 µM (active); in assay [15], 6.67 µM (active); in assay [16] it was 19.8 µM (active).
`COCC(=O)N1C[C@H](C)[C@H](OC)CN(C)C(=O)c2cc(NC(=O)C3CCC3)ccc2OC[C@@H]1C`: the AC50 in assay [17] was 13.2 µM (active).
As to `CCN1CCN(C2=C(NS(=O)(=O)c3ccc(Br)s3)C(=O)c3ccccc3C2=O)CC1`, the AC50 in assay [18] and in assay [19] was > 70 µM (inactive) each time.
Consider `Fc1ccc2c(c1)[nH]c(=S)n2CCOc1ccccc1`, for which the AC50 in [20] is > 52 µM (inactive).
`CCCCNc1nc(-c2ccccc2)nc2ccccc12`: the IC50 in assay [21] is 23.2 µM (inactive); in assay [22], > 80 µM (inactive).
Turning to `COc1ccc(/C=C/C(=O)N2CCN(S(=O)(=O)c3ccc(Br)cc3)CC2)cc1`, in assay [23], the IC50 was 0.00958 µM (active).
For the compound `CCC(=O)c1ccc(O)cc1` [PAROXYPROPIONE], the IC50 in assay [24] was > 10 µM (inactive); in assay [25], 4.1 µM (active); in assay [26], 7.8 µM (inactive); in [27], > 20 µM (inactive); in assay [28], > 20 µM (inactive); in assay [29], > 20 µM (inactive). For the same compound, the IC50 in [30] was > 10 µM (inactive); in assay [31] it was > 20 µM (inactive); in assay [32], 6.67 µM (inactive); in assay [33], 6.25 µM (inactive).
